Data: paper PMC10634346 (Cancer Research Communications, 2023)
Read-outs that look alike come from different tables or passages of the source.

Columns and labels:
[1] = tested on: MYC mRNA in SU-DHL-10 tumors; assay: Pharmacodynamics in SU-DHL-10 xenograft tumors, MYC mRNA qPCR; assay type: in vivo, C.B-17 SCID mice; conditions: single dose 10 and 15 mg/kg
Procedure: Total RNA was extracted from blood of patients and cell lines using RNeasy Plus Mini Kit (QIAGEN, #74136) and cDNA prepared with the Maxima First Strand cDNA Synthesis Kit for RT-PCR (Thermo Fisher Scientific, K1642) according to manufacturer's instructions. The integrity of purified total RNA was evaluated using an Agilent 2100 Bioanalyzer system and RNA 6000 Nano Kit (Agilent, #5067-1511). Differential gene expression analysis was performed (Fios Genomics) from RNA-seq data (Discovery Life Sciences). MYC and MCL1 mRNA levels were measured by qPCR in vitro and in vivo, using a Taqman qPCR system (Thermo Fisher Scientific), TaqMan Fast Universal PCR Master Mix (2X) no AmpErase (#4352042) and TaqMan probes for MYC (Hs00153408_m1) and MCL1 (Hs03043899_m1). RNA-seq data were analyzed using DESeq2 ([35]).
(§1) A total of 10 × 10^6 SU-DHL-10 cells were inoculated subcutaneously into 6–8 weeks old female C.B-17 SCID mice (Iffa Credo, Brussels). The mice were randomized to treatment groups at a tumor volume of 63–104 mm^3 and treated (intravenously, once weekly) with 10 mg/kg enitociclib (60% PEG400, 10% ethanol, water), 15 mg/kg enitociclib (30% PEG400, 10% ethanol, water), or corresponding vehicle treatments. Mice were around 10–12 weeks of age at the start of study. All animal experiments were performed under the national animal welfare laws of Germany and approved by the local authorities.

[2] = tested on: panel of 35 human lymphoma cell lines; assay: CellTiter-Glo cell viability, lymphoma cell line panel (OmniScreen); assay type: cell-based
Procedure: (§2) Human DLBCL cell lines SU-DHL-4 (#ACC 495) and SU-DHL-10 (#ACC 576) were obtained from DSMZ (German Collection of Microorganisms and Cell Cultures). The supplier used PCR-based DNA profiling of polymorphic short tandem repeats for authentication and Mycoplasma testing prior to shipment. Cells were cultured in suspension at 37°C in a humidified atmosphere containing 5% CO2. CDK9 inhibitors KB-0742 (MedChemExpress, #HY-137478A), enitociclib, and atuveciclib ([…] Pharma, Inc.) were used. A subset of 35 lymphoma cell lines is from a 500-cell line panel where the effect of enitociclib on cell viability using CellTiter-Glo luminescent cell viability was determined (OmniScreen, CrownBioscience). Genetic status and gene expression level for MYC and MCL1 was obtained from CrownBioscience.

[3] = tested on: Myc protein in SU-DHL-10 tumors; assay: Pharmacodynamics in SU-DHL-10 xenograft tumors, Myc protein; assay type: in vivo, C.B-17 SCID mice; conditions: single dose; within 4 to 8 hours postdose
Procedure: (§3) The levels of p-Ser2, p-Ser5 and total RNA polymerase II, Myc, Mcl-1, cleaved PARP (cPARP), and cleaved Caspase 3 were assessed by Western blotting and quantified near-infrared detection and background corrected quantification of fluorescence intensity on an Odyssey Imaging System with IRDye secondary antibodies (LI-COR Biosciences). For quantification, the protein levels were normalized to GAPDH or HSP90, expressed as a ratio to DMSO or vehicle control at matched timepoints. The normalized relative protein levels of p-Ser2 were used for a treatment effect comparison by performing an ANOVA using PROC MIXED in SAS. The ANOVA model included treatment, timepoints and their interactions as fixed effects. The least square means (LSM), differences between the LSMs and associated P values were generated. The following primary antibodies were used: Rpb1 NTD (D8L4Y) rabbit antibody [Cell Signaling Technology (CST), #14958], anti-RNA polymerase II subunit B1 (phospho CTD Ser-2, clone 3E10) rat antibody (Merck, 04-1571-I), recombinant anti-c-MYC rabbit antibody (Y69; Abcam, #ab32072), MCL1 (D5V5L) rabbit antibody (CST, #39224), cleaved-PARP (Asp214) (E2T4K) mouse antibody (CST, #32563), HSP90 (C45G5) rabbit antibody (CST, #4877), and GAPDH mouse antibody (Zytomed Systems, #ZYT-RGM2-6C5). […]

SU-DHL-4 = assay: CellTiter-Glo cell viability, SU-DHL-4; assay type: cell-based; conditions: Homo sapiens
Procedure: as §2

[4] = tested on: RNA polymerase II Ser2 phosphorylation (p-Ser2) in SU-DHL-10 cells; assay: In vitro washout, p-Ser2 Western blot, SU-DHL-10; assay type: cell-based, human; conditions: 1 µmol/L
Procedure: (§4) Evaluation of the pharmacodynamic extent and duration of CDK9 inhibition were performed in vitro using the human DLBCL cell lines SU-DHL-4 and SU-DHL-10, harboring MYC amplification and MYC overexpression with P57T mutation, respectively. Cells were seeded 18 hours prior to treatment for 4 hours with one of three CDK9 inhibitors, enitociclib (0.25 and1 µmol/L), atuveciclib (1 µmol/L) or KB-0742 (1 µmol/L), cells were washed, and incubation continued until 48 hours posttreatment. Samples were collected before treatment (−4), immediately after treatment (0), and at 1, 2, 4, 8, 12, 16, 24, and 48 hours after washout for RNA sequencing (RNA-seq), qPCR, and Western blotting analyses.
(§5) The levels of p-Ser2, p-Ser5 and total RNA polymerase II, Myc, Mcl-1, cleaved PARP (cPARP), and cleaved Caspase 3 were assessed by Western blotting and quantified near-infrared detection and background corrected quantification of fluorescence intensity on an Odyssey Imaging System with IRDye secondary antibodies (LI-COR Biosciences). For quantification, the protein levels were normalized to GAPDH or HSP90, expressed as a ratio to DMSO or vehicle control at matched timepoints. The normalized relative protein levels of p-Ser2 were used for a treatment effect comparison by performing an ANOVA using PROC MIXED in SAS. The ANOVA model included treatment, timepoints and their interactions as fixed effects. The least square means (LSM), differences between the LSMs and associated P values were generated. The following primary antibodies were used: Rpb1 NTD (D8L4Y) rabbit antibody [Cell Signaling Technology (CST), #14958], anti-RNA polymerase II subunit B1 (phospho CTD Ser-2, clone 3E10) rat antibody (Merck, 04-1571-I), recombinant anti-c-MYC rabbit antibody (Y69; Abcam, #ab32072), MCL1 (D5V5L) rabbit antibody (CST, #39224), cleaved-PARP (Asp214) (E2T4K) mouse antibody (CST, #32563), HSP90 (C45G5) rabbit antibody (CST, #4877), and GAPDH mouse antibody (Zytomed Systems, #ZYT-RGM2-6C5).

[5] = tested on: Mcl-1 protein in SU-DHL-10 tumors; assay: Pharmacodynamics in SU-DHL-10 xenograft tumors, Mcl-1 protein; assay type: in vivo, C.B-17 SCID mice; conditions: single dose; within 4 to 8 hours postdose
Procedure: as §3

[6] = tested on: RNA polymerase II Ser2 phosphorylation (p-Ser2) in SU-DHL-4 cells; assay: In vitro washout, p-Ser2 Western blot, SU-DHL-4; assay type: cell-based, human; conditions: 4-hour treatment then washout
Procedure: as §4, §5

[7] = tested on: p-Ser5 RNA polymerase II in SU-DHL-10 tumors; assay: Pharmacodynamics in SU-DHL-10 xenograft tumors, p-Ser5; assay type: in vivo, C.B-17 SCID mice; conditions: single dose, all doses (5, 10, 15 mg/kg)
Procedure: as §3

[8] = Body weight of treated xenograft mice; assay type: in vivo, C.B-17 SCID mice; conditions: 15 mg/kg i.v. once weekly
Procedure: as §1

With `COc1cc(F)ccc1-c1cc(Nc2cc(CS(C)(=N)=O)ccn2)ncc1F` (stereo not shown) [enitociclib] the “MYC mRNA in tumors (in words)” value [1] was “depleted by 4 hours postdose”, the IC50 ([2]; Homo sapiens, lymphoma cell lines, media fu = 66.6%, read-out: mean unbound IC50 for cytotoxicity) was roughly 67 nM and the IC50 ([2]; range over panel of 35 human lymphoma cell lines, read-out: IC50 (cell cytotoxicity)) was 43 to 152 nM. For the same molecule, the “reduction of Myc protein levels in tumors” value [3] was 50%, the IC50 (SU-DHL-4) was 43 nM and the “reduction of p-Ser2” value ([4]; 4-hour treatment then washout) was 50%. For the same molecule, the “duration of p-Ser2 reduction” value ([4]; after treatment) was “up to 24 hours”, the “Mcl-1 protein levels in tumors (in words)” value [5] was “robustly decreased” and the “decrease of p-Ser2 levels” value ([6]; 0.25 µmol/L) was 50%. The “duration of p-Ser2 decrease” value ([6]; 0.25 µmol/L) was “up to 48 hours”, the “duration of p-Ser2 decrease” value ([6]; 1 µmol/L) was 48 h and the “p-Ser5 reductions in tumors (in words)” value [7] was “not robust”. For the same molecule, the “maximum body weight change” value [8] was −12.5%.
